ChEMBL document CHEMBL4393657, “Tetrazole hybrids and their antifungal activities” (2019)
Values after ≈ are worked out from the molar mass of the structure shown.

Key:
Format in all cases: functional
Candida parapsilosis = test: Antifungal activity against Candida parapsilosis ATCC 22019 assessed as reduction in fungal cell growth incubated for 48 hrs by broth microdilution method; conditions: Lodderomyces parapsilosis, ATCC 22019, 48 h
Candida tropicalis = test: Antifungal activity against Candida tropicalis assessed as reduction in fungal cell growth incubated for 48 hrs by broth microdilution method
Cryptococcus neoformans = test: Antifungal activity against Cryptococcus neoformans LA314 assessed as reduction in fungal cell growth incubated for 48 hrs by broth microdilution method; conditions: LA314, 48 h
Pichia kudriavzevii = test: Antifungal activity against Candida krusei assessed as reduction in fungal cell growth incubated for 48 hrs by broth microdilution method
Nakaseomyces glabratus = test: Antifungal activity against Candida glabrata assessed as reduction in fungal cell growth incubated for 48 hrs by broth microdilution method
Aspergillus niger = test: Antifungal activity against Aspergillus niger assessed as reduction in fungal cell growth incubated for 72 hrs by broth microdilution method
Candida albicans = test: Antifungal activity against Candida albicans assessed as reduction in fungal cell growth incubated for 48 hrs by broth microdilution method

SMILES | MIC (Candida parapsilosis) [µg/mL] | MIC (Candida tropicalis) [µg/mL] | MIC (Cryptococcus neoformans) [µg/mL] | MIC (Pichia kudriavzevii) [µg/mL] | MIC (Nakaseomyces glabratus) [µg/mL] | MIC (Aspergillus niger) [µg/mL] | MIC (Candida albicans) [µg/mL]
OC(Cn1cncn1)(Cn1nnnc1CCN1CCN(c2ccc(Cc3ccccc3)cc2)CC1)c1ccc(F)cc1F (stereo not given) | 0.5 to 16 (≈ 0.854 to 27.3 µM) | 0.5 to 16 (≈ 0.854 to 27.3 µM) | 0.5 to 16 (≈ 0.854 to 27.3 µM) | 0.5 to 16 (≈ 0.854 to 27.3 µM) | 0.5 to 16 (≈ 0.854 to 27.3 µM) | 0.5 to 16 (≈ 0.854 to 27.3 µM) | 0.5 to 16 (≈ 0.854 to 27.3 µM)
CC(n1nnnc1CCN1CCN(Cc2ccccc2)CC1)C(O)(Cn1cncn1)c1ccc(F)cc1F (stereo not given) | 0.5 to 16 (≈ 0.955 to 30.6 µM) | 0.5 to 16 (≈ 0.955 to 30.6 µM) | 0.5 to 16 (≈ 0.955 to 30.6 µM) | 0.5 to 16 (≈ 0.955 to 30.6 µM) | 0.5 to 16 (≈ 0.955 to 30.6 µM) | 0.5 to 16 (≈ 0.955 to 30.6 µM) | 0.5 to 16 (≈ 0.955 to 30.6 µM)
CC(n1nnc(CCN2CCN(c3ccccc3)CC2)n1)C(O)(Cn1cncn1)c1ccc(F)cc1F (stereo not given) | 1 to 16 (≈ 1.96 to 31.4 µM) | 1 to 16 (≈ 1.96 to 31.4 µM) | 1 to 16 (≈ 1.96 to 31.4 µM) | 1 to 16 (≈ 1.96 to 31.4 µM) | 1 to 16 (≈ 1.96 to 31.4 µM) | 1 to 16 (≈ 1.96 to 31.4 µM) | 1 to 16 (≈ 1.96 to 31.4 µM)
CC(n1nnnc1CCN1CCN(C(c2ccccc2)c2ccccc2)CC1)C(O)(Cn1cncn1)c1ccc(F)cc1F (stereo not given) | 0.5 to 16 (≈ 0.834 to 26.7 µM) | 0.5 to 16 (≈ 0.834 to 26.7 µM) | 0.5 to 16 (≈ 0.834 to 26.7 µM) | 0.5 to 16 (≈ 0.834 to 26.7 µM) | 0.5 to 16 (≈ 0.834 to 26.7 µM) | 0.5 to 16 (≈ 0.834 to 26.7 µM) | 0.5 to 16 (≈ 0.834 to 26.7 µM)
OC(Cn1cncn1)(Cn1nnc(CCN2CCN(c3cccc(C(F)(F)F)c3)CC2)n1)c1ccc(F)cc1F (stereo not given) | 1 to 16 (≈ 1.77 to 28.4 µM) | 1 to 16 (≈ 1.77 to 28.4 µM) | 1 to 16 (≈ 1.77 to 28.4 µM) | 1 to 16 (≈ 1.77 to 28.4 µM) | 1 to 16 (≈ 1.77 to 28.4 µM) | 1 to 16 (≈ 1.77 to 28.4 µM) | 1 to 16 (≈ 1.77 to 28.4 µM)
CC(n1nnc(CCN2CCN(Cc3ccccc3)CC2)n1)C(O)(Cn1cncn1)c1ccc(F)cc1F (stereo not given) | 1 to 16 (≈ 1.91 to 30.6 µM) | 1 to 16 (≈ 1.91 to 30.6 µM) | 1 to 16 (≈ 1.91 to 30.6 µM) | 1 to 16 (≈ 1.91 to 30.6 µM) | 1 to 16 (≈ 1.91 to 30.6 µM) | 1 to 16 (≈ 1.91 to 30.6 µM) | 1 to 16 (≈ 1.91 to 30.6 µM)
CC(n1nnc(CCN2CCN(c3cccc(Cl)c3)CC2)n1)C(O)(Cn1cncn1)c1ccc(F)cc1F (stereo not given) | 1 to 16 (≈ 1.84 to 29.4 µM) | 1 to 16 (≈ 1.84 to 29.4 µM) | 1 to 16 (≈ 1.84 to 29.4 µM) | 1 to 16 (≈ 1.84 to 29.4 µM) | 1 to 16 (≈ 1.84 to 29.4 µM) | 1 to 16 (≈ 1.84 to 29.4 µM) | 1 to 16 (≈ 1.84 to 29.4 µM)
CC(n1nnnc1CCN1CCN(c2ccc(Cl)cc2)CC1)C(O)(Cn1cncn1)c1ccc(F)cc1F (stereo not given) | 0.5 to 16 (≈ 0.919 to 29.4 µM) | 0.5 to 16 (≈ 0.919 to 29.4 µM) | 0.5 to 16 (≈ 0.919 to 29.4 µM) | 0.5 to 16 (≈ 0.919 to 29.4 µM) | 0.5 to 16 (≈ 0.919 to 29.4 µM) | 0.5 to 16 (≈ 0.919 to 29.4 µM) | 0.5 to 16 (≈ 0.919 to 29.4 µM)
CCCCOc1ccccc1N1CCN(CCc2nnnn2CC(O)(Cn2cncn2)c2ccc(F)cc2F)CC1 (stereo not given) | 0.5 to 16 (≈ 0.881 to 28.2 µM) | 0.5 to 16 (≈ 0.881 to 28.2 µM) | 0.5 to 16 (≈ 0.881 to 28.2 µM) | 0.5 to 16 (≈ 0.881 to 28.2 µM) | 0.5 to 16 (≈ 0.881 to 28.2 µM) | 0.5 to 16 (≈ 0.881 to 28.2 µM) | 0.5 to 16 (≈ 0.881 to 28.2 µM)
OC(Cn1cncn1)(Cn1nnc(CCN2CCN(C(c3ccccc3)c3ccccc3)CC2)n1)c1ccc(F)cc1F (stereo not given) | 1 to 16 (≈ 1.71 to 27.3 µM) | 1 to 16 (≈ 1.71 to 27.3 µM) | 1 to 16 (≈ 1.71 to 27.3 µM) | 1 to 16 (≈ 1.71 to 27.3 µM) | 1 to 16 (≈ 1.71 to 27.3 µM) | 1 to 16 (≈ 1.71 to 27.3 µM) | 1 to 16 (≈ 1.71 to 27.3 µM)

Results, then the compound that gave them:

MIC (Candida parapsilosis) [µg/mL] | MIC (Candida tropicalis) [µg/mL] | MIC (Cryptococcus neoformans) [µg/mL] | MIC (Pichia kudriavzevii) [µg/mL] | MIC (Nakaseomyces glabratus) [µg/mL] | MIC (Aspergillus niger) [µg/mL] | MIC (Candida albicans) [µg/mL] | SMILES
0.12 to 16 (≈ 0.235 to 31.3 µM) | 0.12 to 16 (≈ 0.235 to 31.3 µM) | 0.12 to 16 (≈ 0.235 to 31.3 µM) | 0.12 to 16 (≈ 0.235 to 31.3 µM) | 0.12 to 16 (≈ 0.235 to 31.3 µM) | 0.12 to 16 (≈ 0.235 to 31.3 µM) | 0.12 to 16 (≈ 0.235 to 31.3 µM) | C[C@H](n1nnnc1CCN1CCN(c2ccccn2)CC1)[C@](O)(Cn1cncn1)c1ccc(F)cc1F
0.25 to 16 (≈ 0.432 to 27.7 µM) | 0.25 to 16 (≈ 0.432 to 27.7 µM) | 0.25 to 16 (≈ 0.432 to 27.7 µM) | 0.25 to 16 (≈ 0.432 to 27.7 µM) | 0.25 to 16 (≈ 0.432 to 27.7 µM) | 0.25 to 16 (≈ 0.432 to 27.7 µM) | 0.25 to 16 (≈ 0.432 to 27.7 µM) | C[C@H](n1nnc(CCN2CCN(c3c(Cl)cccc3Cl)CC2)n1)[C@](O)(Cn1cncn1)c1ccc(F)cc1F
0.25 to 16 (≈ 0.46 to 29.4 µM) | 0.25 to 16 (≈ 0.46 to 29.4 µM) | 0.25 to 16 (≈ 0.46 to 29.4 µM) | 0.25 to 16 (≈ 0.46 to 29.4 µM) | 0.25 to 16 (≈ 0.46 to 29.4 µM) | 0.25 to 16 (≈ 0.46 to 29.4 µM) | 0.25 to 16 (≈ 0.46 to 29.4 µM) | C[C@H](n1nnc(CCN2CCN(c3cccc(Cl)c3)CC2)n1)[C@](O)(Cn1cncn1)c1ccc(F)cc1F
0.25 to 16 (≈ 0.463 to 29.7 µM) | 0.25 to 16 (≈ 0.463 to 29.7 µM) | 0.25 to 16 (≈ 0.463 to 29.7 µM) | 0.25 to 16 (≈ 0.463 to 29.7 µM) | 0.25 to 16 (≈ 0.463 to 29.7 µM) | 0.25 to 16 (≈ 0.463 to 29.7 µM) | 0.25 to 16 (≈ 0.463 to 29.7 µM) | COc1ccc(N2CCN(CCc3nnn([C@@H](C)[C@](O)(Cn4cncn4)c4ccc(F)cc4F)n3)CC2)cc1
0.12 to 16 (≈ 0.221 to 29.4 µM) | 0.12 to 16 (≈ 0.221 to 29.4 µM) | 0.12 to 16 (≈ 0.221 to 29.4 µM) | 0.12 to 16 (≈ 0.221 to 29.4 µM) | 0.12 to 16 (≈ 0.221 to 29.4 µM) | 0.12 to 16 (≈ 0.221 to 29.4 µM) | 0.12 to 16 (≈ 0.221 to 29.4 µM) | C[C@H](n1nnnc1CCN1CCN(c2ccccc2Cl)CC1)[C@](O)(Cn1cncn1)c1ccc(F)cc1F
